The values below come from patent US10729695B2, “Amino, amido and heterocyclic compounds as modulators of RAGE activity and uses thereof” (The Research Foundation for the State University of New York, priority 2013, dated 2020).

For the assay, the target named is RAGE tail (ctRAGE) binding to mDial (Homo sapiens (Human), UniProt Q15109). As to the kind of experiment: Primary screen: binding of GFP RAGE tail to mDial at one concentration (10 uM). The note with it: 10 μM compound. As to the method:
Primary screening was a two-step process in which compounds were first tested in a high throughput assay at one concentration (10 uM). Compounds that reduced binding of RAGE tail (ctRAGE) by at least 50% were then selected and subjected to 4-point dose response (10 uM, 1 uM, 0.1 uM and 0.01 uM) (FIGS. 1, 4, and 5).
Step 1. Add 50 μl anti-mDial (1:160 dilution in 0.1M NaHCO3 pH 9.6)/well. Incubate overnight at 4° C.
Step 2. Use the plate washer to aspirate anti-mDial and wash plates 4× with PBS 100 μl per well per wash.
Step 3. Add 180 μl 3% BSA in 1×PBS. Incubate for 1.5 hrs at room temperature
Step 4. Use the plate washer to aspirate the blocking solution and wash 5× with PBS 300 μl per well.
Step 5. Add 50 μl of mDial containing lysate (85 μg) and incubate at RT for 3 hours.
Step 6. Aspirate the lysate and wash the plate 5× (100 μl) on the plate washer.
Step 7. Add 25 μl PBS to the wells.
Step 8. Add 0.5 μL compound per well.
Step 9. Add 24.5 μL GFP RAGE tail (125 nM) into each well for 2 hrs at room temperature.
Step 10. Aspirate and wash 5× with PBS (100 μL) on the plate washer.
Step 11. Add 100 ul PBS in each well.
Step 12. Detection: Read on fluorescence plate reader excitation 435 nm and 485 nm emission
Compounds that blocked the binding of RAGE tail to mDial by 50% or more were subjected to 4 point dose response: 10 μM, 1 μM, 0.1 μM and 0.01 μM.

Molecules are shown by their SMILES.

Chain of RAGE tail (ctRAGE) binding to mDial (Q15109 364-404): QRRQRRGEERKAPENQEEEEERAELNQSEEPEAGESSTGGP

Take `COc1ccccc1-c1cc(C(F)(F)F)nc(N2CCN(c3ccccc3OC)CC2)n1` [CD-42]: testing at 10 µM gave an inhibition of 42%.

Take `OC(COCc1ccccc1)Cn1cnc2ccccc21` (centres unmarked) [CD-14]: the inhibition (in general, the change of the read-out against control, counted positive when it falls) at 10 µM was found to be 26%. For the compound `O=C(O)c1ccccc1OCC(O)Cn1cnc2ccccc21` (centres unmarked) [CD-19], 10 µM produced 24% inhibition. The compound `O=C(O)COc1ccc2c(C(F)(F)F)cc(=O)oc2c1` [CD-12] yielded an inhibition at 10 µM of 11%. `OC(CN(c1ccccc1)c1ccccc1)Cn1cnc2ccccc21` (centres unmarked) [CD-18] came in with an inhibition at 10 µM of 45%.
